# In patent publication US9682158B2, “Therapy of malignant neoplasias” (priority 2005, dated 2017):
# Entries after “also recorded” stand apart in the source; their conditions may differ.
# Key:
# [1] = test system: human tumor cells, especially malignant gliomas; assay: Flow-cytometric analyses of stained cells after treatment (primary necrosis and apoptosis); type: cell-based; settings: flow cytometry; compared with external irradiation up to 15 Gy
# Description: (§1) After development of a confluent lawn of cells, the cultures were exposed to 0.001-10 μCi/ml of the corresponding radiopharmaceutical for up to 48 hours at 37° C./5% CO2. In a parallel experiment, cells were irradiated using a 6-MeV linear accelerator with doses from 2 to 15 Gy for comparison of cell survival rate of both methods. In order to be able to observe the morphology of the glioma cells, the cells were grown on standard glass slides or in standard culture dishes. Then the medium was removed and the cells were fixed either in 70% ethanol for at least 30 min on ice for flow-cytometric analyses after staining or in 4% neutral buffered formalin for immunohistopathological analyse.
# [2] = test system: glioma, pancreas, prostate and breast cancer cells; assay: Cell survival after treatment with radiolabeled L-phenylalanines, further tumor cells; type: cell-based; settings: in vitro
# Description: as §1
# (§2) Human tumor cells grown on standard glass slides were fixed in 4% neutral buffered formalin and stained with the Giemsa method. The cell number was calculated in 10 consecutive high power fields (×40).
# glioma [3] = assay: Clinical studies with IPA-123 (SPECT imaging); type: in vivo, human; settings: 250 MBq
# Description: IPA was prepared, as described in example 2. […] Patients were injected with 250 MBq IPA-123, and subsequently imaged at 30 min, 3 h and, where possible, 24 h post injection, using a triple head SPECT camera (Siemens Multi-SPECT III, Erlangen, Germany) with low energy high resolution (LEHR) collimator and iterative reconstruction for cerebral (FIG. 14) imaging. Whole body imaging (FIG. 15) was performed using a Hawkeye dual head SPECT camera (General Electrics Medical Systems, Uppsala, Sweden) with high energy collimator, and iterative reconstruction at 0 min, 1 h and 3 h after injection of 250 MBq IPA-123. SPECT images were acquired using 3-degree angular steps. During a 360° rotation 120 projections were recorded into a 128*128 matrix, with an acquisition time of 40 s per image. Images were reconstructed using manufacturer's software. Anatomical co-alignment with MRI data was performed using HERMES software for nuclear medicine (Nuclear Diagnostics, Stockholm, Sweden). Tumor uptake was visually assessed by two adequately trained, independent nuclear medicine physicians. In discordant cases, a consensus rating was agreed upon. 86% of patients with histologically confirmed tumor show IPA-123 uptake.
# glioma [4] = settings: cited from earlier work
# glioma [5] = assay: Clinical study with IPA-124 (PET imaging); type: in vivo, human
# Description: IPA was prepared, as described in example 3. […] The patient was injected with 50 MBq IPA-124, and subsequently dynamically imaged at 40-80 min and at 6 days post injection using a dedicated PET camera (Siemens ECAT-ART Scanner, Siemens-CTI, Knoxville, Tenn., USA). SPECT images were acquired using 3-degree angular steps. During a 360° rotation 120 projections were recorded into a 128*128 matrix, with an acquisition time of 40 s per image. Images were reconstructed using manufacturer's software. Anatomical co-alignment with MRI data was performed using HERMES software for nuclear medicine (Nuclear Diagnostics, Stockholm, Sweden) (FIGS. 12a and b). Tumor uptake was visually assessed by two adequately trained, independent nuclear medicine physicians. The patient was operated on day 2 post injection. Post-operative images continue to show strong IPA uptake in projection to the resection margins corresponding to a large portion of tumor tissue which remained in situ. […] Post-operative images were semiquantitatively analysed. A region of interest (ROI) was drawn over the area of increased IPA-124 uptake and compared to a mirrored reference ROI in the contralateral healthy hemisphere using the median sagittal plane as mirror plane (FIG. 12c). Activity concentration in the remaining tumor tissue exceeded activity in the reference region by a factor of 8.86 after 6 days.
# [6] = physical half life of the radionuclide; cited from earlier work
# [7] = test system: human A1207 glioblastomas; assay: IPA-131 endoradiotherapy of orthotopic human A1207 glioblastomas; type: in vivo; settings: dose 20 MBq, RNU rats
# Description: (§3) The first studies were carried out on in male Wistar rats for C6 rat glioma model and in RNU rats for human glioma models. Wistar rats and RNU rats were from Charles River (Sulzfeld, Germany). The C6 rat glioma model has been previously described in detail. Its biological behavior closely simulates that of human high-grade gliomas.
# (§4) One million (10^6) C6 rat glioma cells or 10^6 primary human Tx3868, […], A1207, M059K and U373MG high-grade glioma cells were stereotactically implanted into the left frontal region of Wistar rats or RNU rats while under chloral hydrate anaesthesia as described previously. The animals were held in metabolic cages. […] For each cell line, 6 animals with radiologically (MRI or by gamma camera) confirmed brain tumor were randomly chosen as control animals, a second group of 15 animals were treated with 20 MBq of the radiolabeled L-phenylalanine in two fractions of 10 MBq each via a Teflon catheter in a tail vein 9 and 18 days after tumour implantation. While a third group of 15 rats were irradiated with 4-8 Gy. Survival time was calculated according to the Kaplan-Meier method. Surviving animals were sacrificed after 90 and 180 days. All rat brains were examined histologically after biopsy.
# (§5) At autopsy of the rats and mice, besides the brains, other organs were harvested including the heart, lung, liver, spleen, kidney, skin, and colon. […]
# glioma [8] = assay: Clinical study with IPA-131 (SPECT imaging); type: in vivo, human; settings: 100 MBq
# Description: IPA was prepared, as described in example 3. […] The patient was injected with 100 MBq IPA-131 and subsequently imaged at 30 min and at 26 h post injection using a Hawkeye dual head SPECT camera (General Electrics Medical Systems, Uppsala, Sweden) with high energy collimator, and iterative reconstruction for cerebral (FIGS. 13a and b) and whole body (FIGS. 13c and d) imaging. SPECT images were acquired using 3-degree angular steps. During a 360° rotation 120 projections were recorded into a 128*128 matrix, with an acquisition time of 40 s per image. Images were reconstructed using manufacturer's software. Tumor uptake was visually assessed by two adequately trained, independent nuclear medicine physicians.
# [9] = test system: orthotopically implanted rat and human gliomas; assay: IPA-131 endoradiotherapy in rats with orthotopically implanted rat and human gliomas, Kaplan-Meier survival; type: in vivo
# Description: as §3, §4
# [10] = test system: Tx 3868 primary human glioma cell line; assay: Cell survival rate after treatment with radiolabeled L-phenylalanines; type: cell-based
# Description: (§6) Five human glioma cell lines, one rat glioma cell line, two human prostate cancer cell lines and one human breast cancer cell line were investigated. The human glioma cell lines Tx 3868 and T 5135 (from primary human glioblastoma multiforme), and the rat C6 glioma cells were provided by the Institute of Human Genetics, University of the Saarland (Homburg, Germany). The human high-grade glioma cells, designated as A1207, M059K and U373MG, the human prostate cancer cell lines PC3 and […], and the human breast cancer cell line MCF-07 (American Type Culture Collection, Rockville, Md.), were purchased commercially or provided by the oncological research laboratory of the University Medical Center of Saarland (Homburg, Germany). Cells were cultivated in RPMI-1640 medium or in Dulbecco's modified Eagle medium (sodium pyruvate-free, supplemented with […] and pyridoxine), respectively, supplemented with 10% (v/v) heat-inactivated foetal calf serum (FCS), penicillin (50 U/ml), streptomycin (50 μg/ml), and 50 μl insulin (PromoCell, Heidelberg, Germany). All cells lines were maintained in appropriate flasks in a humidified incubator (5% CO2) at 37° C. Before the experiment, subconfluent cell cultures were trypsinized with a solution of 0.05% trypsin containing 0.02% EDTA but without Ca^2+ and Mg^2+, and resuspended in fresh medium to various cell concentrations after counting by vital staining on a hemocytometer, depending upon the study. Cells were free of mycoplasms. Viability of the cells was >95%.
# (§7) After development of a confluent lawn of cells, the cultures were exposed to 0.001-10 μCi/ml of the corresponding radiopharmaceutical for up to 48 hours at 37° C./5% CO2. In a parallel experiment, cells were irradiated using a 6-MeV linear accelerator with doses from 2 to 15 Gy for comparison of cell survival rate of both methods. […]
# as §2
# [11] = test system: T5135 primary human glioma cell line; assay: as above; type: cell-based; settings: 24 hours exposure, 1 μCi/ml, compared to parallel grown cell cultures without exposure
# Description: as §6, §7, §2
# [12] = test system: human Tx3868 glioblastomas; assay: IPA-131 endoradiotherapy of orthotopic human Tx3868 glioblastomas; type: in vivo; settings: dose 20 MBq, RNU rats
# Description: as §3, §4, §5
# C6 rat gliomas = assay: IPA-131 endoradiotherapy of orthotopic C6 rat gliomas; type: in vivo
# Description: […] Wistar rats and RNU rats were from Charles River (Sulzfeld, Germany). The C6 rat glioma model has been previously described in detail. Its biological behavior closely simulates that of human high-grade gliomas.
# as §4
# Magnetic resonance imaging was performed 9 days after tumour implantation (before drug administration) and after the second injection of radiolabeled phenylalanine at day 18 as well as possibly at the day of scarification, using a 2.4-Tesla small animal magnetic resonance tomograph (Brucker Biospec 2.4, Karlruhe, Germany). This system was equipped with a rat coil to hold the animal and transmit homogeneous signals. All rats were imaged while under chloral hydrate anaesthesia (250 mg/kg, i.m.). Multiple axial and coronal images (T1- and T2-weighted) were acquired for 20 min without contrast media. The parameters used were: T1-weighted (TR=100 msec, TE=6.5 msec, flip angle 30°, FOV=2×2 cm, 256×128×64 matrix) and T2-weighted (TR=500 msec, TE=17.5 msec, 1 acquisition, RARE factor 16, FOV=2×2 cm, 256×256×32 matrix, slap-thickness 16 mm).
# as §5
# [13] = Clinical and histological safety observation of treated glioma rats; type: in vivo, rat
# Description: as §4
# At autopsy of the rats and mice, besides the brains, other organs were harvested including the heart, lung, liver, spleen, kidney, skin, and colon. The brains were cut in coronal slices of about 2-3 mm thickness. All tissues from the animals were fixed in 4% neutral buffered formalin and embedded in paraffin wax. Sections were stained with hematoxylin-eosin and Verhoeff-van Gieson and examined histopathologically.
molecule,measurement,setting,value
"3,4-[^77Br]bromo-L-Phenylalanine [BrPA-77]",induction of primary necrosis and apoptosis,[1],"dose dependent induction of primary necrosis and apoptosis, which was more significant than that caused by external irradiation, even with 15 Gy"
same,cell count / cell survival compared with IPA-131 results,[2],Identical results
"3,4-[^211I]astatine-L-phenylalanine [AtPA-211]",induction of primary necrosis and apoptosis,[1],"dose dependent induction of primary necrosis and apoptosis, which was more significant than that caused by external irradiation, even with 15 Gy"
same,cell count / cell survival compared with IPA-131 results,[2],Identical results
"N[C@@H](Cc1ccc([123I])cc1)C(=O)O [IPA-123, 4-[^123I]iodo-L-phenylalanine]",patients with histologically confirmed tumor showing uptake,glioma [3]; visual assessment,86%
same,retention of the tracer in tumor,glioma [3]; patient with glioblastoma,at least 24 h
same,accumulation in gliomas,"glioma [4]; after intravenous administration, ref [14]",accumulates specifically in low and high grade gliomas with surprisingly marked retention in tumor cells
same,blood-brain barrier passage,"glioma [4]; after intravenous administration, refs [13, 14]",crosses the blood-brain barrier
same,accumulation in the normal cerebral parenchyma,"glioma [4]; refs [13, 14]",moderate and decreases rapidly with time
"N[C@@H](Cc1ccc([124I])cc1)C(=O)O [IPA-124, 4-[^124I]iodo-L-phenylalanine]",tumor uptake / targeting in glioma patient,"glioma [5]; 50 MBq, PET 40-80 min and 6 days post injection",retained in high activity concentrations by tumor tissue for prolonged periods; also recorded: Successful tumor targeting
same,tolerability,"glioma [5]; patient, 50 MBq",well tolerated
same,retention of tracer in glioma,"glioma [5]; patient, 50 MBq, PET",at least 6 days
same,"tumor activity relative to reference region (contralateral healthy tissue), factor","glioma [5]; post-operatively remaining tumor tissue, 6 days post injection of 50 MBq",8.86
same,half life,[6],101 h
"N[C@@H](Cc1ccc([131I])cc1)C(=O)O [IPA-131, 4-[^131I]iodo-L-phenylalanine]",induction of primary necrosis and apoptosis,[1],"dose dependent induction of primary necrosis and apoptosis, which was more significant than that caused by external irradiation, even with 15 Gy"
same,metabolic and H & E staining of fresh-frozen tissue sections,[7],"metabolic normalisation, and histological tumor disappearance"
same,tumor uptake / targeting in glioma patient,glioma [8]; SPECT 30 min and 26 h post injection,not only taken up but also retained by glioma tissue; also recorded: Successful tumor targeting
same,tolerability,glioma [8]; patient,well tolerated
same,retention in tumor,"glioma [8]; patient, SPECT",at least 26 hours
same,survival vs maximum tolerable external irradiation,"[9]; Kaplan-Meier analysis, 20 MBq vs external irradiation",significantly longer survival than those treated by maximum tolerable doses of external irradiation
same,survival time of treated rats vs control group,"[9]; all glioma models, 20 MBq i.v. in two fractions",significantly increased
same,cell survival rate,"[10]; 24 hours exposure, 1 μCi/ml, compared to parallel grown cell cultures without exposure",less than 22%
same,mode of cell death (cytological),[10]; primary human glioma cell lines after 24 hours exposure,apoptosis
same,cell survival rate,[11],< 20%
same,metabolic and H & E staining of fresh-frozen tissue sections,[12],"metabolic normalisation, and histological tumor disappearance"
same,Kaplan-Meier survival of treated animals group,"C6 rat gliomas; C6-glioma rats, 81 days after implantation, p=<0.05",significant longer survival
same,"tumor disappearance, intravital small animal MRI imaging","C6 rat gliomas; dose 20 MBq, RNU rats",subgaleal and intracerebral tumor disappearance
same,tumour on MRI,"C6 rat gliomas; surviving C6-glioma rats, 81 days after implantation",no tumour was demonstrable with MRI
same,seizures,[13]; treated animals,No seizures were observed
same,liver and kidney histomorphology,"[13]; treated animals, autopsy",did not show any histomorphological abnormality
same,adverse therapy-related events and toxic effects,"[13]; treated glioma rats, clinical observation",no adverse therapy-related events and no toxic effects were observed clinically
